According to US20160369234A1, “CONVERSION OF SOMATIC CELLS TO INDUCED REPROGRAMMED NEURAL STEM CELLS (IRNSCS)” (Hoffmann-La Roche Inc., priority 2010, published 2016):

Legend:
Type in all cases: cell-based
[1] = tested on: irNSC neurospheres from human fibroblasts IMR90; test: Expansion of irNSC neurospheres with or without Fasudil in expansion medium (FIG. 9); settings: expansion medium with Fasudil vs without; Day 15
Experimental: FIG. 9: Generation of a batch of irNSC neurospheres for expansion and characterization. 3.6 million human fibroblasts IMR90 were trypsinized and infected in a small volume with: Sox2, Bmi1, nestin GFP reporter using the induction medium (N2B27 with FGF, EGF 30 ng/ml BDNF 20 ng/ml) supplemented with Fasudil 10 μM and Polybrene 4 μg/ml. From Day 4 to Day 8: The GFP+ neurospheres bigger than 50 μm were harvested and further used for expansion. Half of the neurospheres have been expanded using the expansion medium (N2B27 with FGF, EGF 30 ng/ml BDNF 20 ng/ml) with Fasudil and the other half without Fasudil.
The irNSCs have a typical NSC morphology and were Sox2 and Nestin positive (FIG. 10).
Expansion Medium: N2B27 supplemented with human EGF (Peprotech) 30 ng/ml, human FGF2 30 ng/ml (Peprotech), human BDNF (Roche) 20 ng/ml, or
1. […]

human fibroblasts = test: Reprogramming of human fibroblasts to irNSCs with or without Fasudil in induction medium, neurosphere count (FIG. 6); settings: Fasudil added to induction medium, nestin reporter lentivirus; day 3
Text: The method can be illustrated by reference to FIG. 1 herein, which depicts a method according to the invention being used for converting human fibroblasts to neural stem cells (NSCs). In this method human fibroblast were trypsinized at day 0, counted and their viability determined. Between 1.0×10^5-3.0×10^5 trypsinized fibroblasts were then resuspended in the induction medium and the combination of genes delivered as lentiviruses. At the induction medium polybrene (hexadimethrine bromide) was added to increase the efficiency of the lentiviruses transduction. The infection was performed for 15 minutes in an eppendorf tube. In combination with the genes, a human Nestin GFP reporter was used. Nestin is a well known marker expressed specifically in NSCs. In the nestin reporter the fluorescent protein GFP is under expression of the human nestin promoter (FIG. 2), therefore it allows an easy screen for induced reprogrammed neural stem cells (irNSCs) GFP+.
The infected cells were plated in tissue culture plates using a concentration of 10000-30000 cells/cm^2 in the appropriate volume of induction medium. At day 1 the total induction medium was renewed. It was possible to identify some irNSC GFP+ (FIG. 3) with a clear change in morphology compared to the human fibroblasts. The irNSCs GFP+ acquired a bipolar and elongated morphology with a more condensed cytoplasm, typical of NSCs. […]

Human fibroblasts IMR90 [2] = test: Generation of GFP+ irNSC neurospheres, Fasudil versus Balanol-like-324 compound in induction medium (FIG. 11)
Experimental: FIG. 11: Comparison of Fasudil versus Balanol-like-324 compound stimulation to generate irNSC neurospheres. Human fibroblasts IMR90 were trypsinized and infected in a small volume with: Sox2, Bmi1, nestin GFP reporter using the induction medium (NeuroCult® NS-A Proliferation Kit (Human, StemCells Technologies) with FGF, EGF BDNF 20 ng/ml; Heparin 2 μg/ml; Polybrene 4 μg/ml) supplemented with Fasudil 10 μM (hatched graph) or Balanol-like-324 compound 2 μM (black graph). Fibroblasts were plated in a normal tissue culture plate at a concentration of 10000-30000 cells/cm^2. Day 1: Media change with fresh induction medium. Day 4: The GFP+ neurospheres bigger than 50 μm were counted.
Induction Medium: N2B27 (N2B27 is a 1:1 mixture of DMEM/F12 (Gibco, Paisley, UK) supplemented with N2 and B27 (both from Gibco) supplemented with human EGF (Peprotech) 30 ng/ml, human FGF2 30 ng/ml (Peprotech), human BDNF (Roche) 20 ng/ml and Fasudil (Calbiochem) 10 μM or Balanol-like-324 compound (N-{(3R,4R)-4-[4-(2-Fluoro-6-hydroxy-3-methoxy-benzoyl)-benzoylamino]-azepan-3-yl}-4-hydroxy-3,5-dimethyl-benzamide) 2 μM.
1. Generation of the irNSCs: • 200.000 IMR90 human fibroblasts infected with the lentiviruses for different genes combination (multiplicity of infection (M.O.I.) used for each single lentivirus 30) and the reporter nestin GFP lentivirus (M.O.I. used 10) in an eppendorf with 300 μl induction medium with polybrene (hexadimethrine bromide, Sigma) 4 μg/ml. • Incubate at room temperature for 15 min. • Plate the 300 μl in 1.7 ml induction medium in a well of a 6-well-plate tissue treated • Day 1, renew the 2 ml of induction medium/each well • Day 3, harvest of the neurospheres collecting carefully the 2 ml with the floating spheres • Expand the neurospheres2. […]

Human fibroblasts IMR90 [3] = test: Pre-treatment of human fibroblasts with Valproic Acid before infection, yield of GFP+ irNSC neurospheres (FIG. 12); settings: VPA 1 mM pre-treatment 48 hours vs without; Day 7; n=3
Experimental: FIG. 12: Pre-treatment of human fibroblasts with Valproic Acid (VPA) improves the yield of GFP+ irNSC neurospheres. Human fibroblasts IMR90 were pre-treated for 48 hours with or without the HDAC inhibitor Valproic Acid (2-propyl-pentanoic acid, monosodium salt) (1 mM) prior infection with: Sox2, Bmi1, nestin GFP reporter. Induction medium (NeuroCult® NS-A Proliferation Kit (Human, StemCells Technologies) with FGF, EGF BDNF 20 ng/ml; Heparin 2 μg/ml; Balanol-like-324 2 μM). Day 7: The Neurospheres bigger than 50 μm were counted (Panel A) and the average number of GFP+ irNSC per neurosphere is reported (Panel B). Representative pictures for the irNSCs neuropheres generated with the VPA pre-treatment (Panel C).
To increase the yield of irNSCs, human fibroblasts were pretreated with or without the HDAC inhibitor Valproic Acid (VPA, 2-propyl-pentanoic acid, monosodium salt). Towards this end, the human fibroblasts were incubated in DMEM/F12 supplemented with FBS 10% and L-glutamine supplemented with 1 mM VPA prior to infection (FIG. 12).

O=S(=O)(c1cccc2cnccc12)N1CCCNCC1 [Fasudil, 1-(5-Isoquinolinesulfonyl)homopiperazine]
neurosphere morphology [1]: better morphology and clear and sharp borders | generation of neurospheres (human fibroblasts): generation of neurospheres (around 50 μm)

COc1ccc(O)c(C(=O)c2ccc(C(=O)N[C@@H]3CCCNC[C@H]3NC(=O)c3cc(C)c(O)c(C)c3)cc2)c1F [Balanol-like-324 compound, N-{(3R,4R)-4-[4-(2-Fluoro-6-hydroxy-3-methoxy-benzoyl)-benzoylamino]-azepan-3-yl}-4-hydroxy-3,5-dimethyl-benzamide]
reproducibility of neurosphere generation versus Fasudil (Human fibroblasts IMR90 [2]; Balanol-like-324 2 μM vs Fasudil 10 μM, Day 4, STDEV, n=3): better reproducibility | increase in efficiency of the neurospheres generation (GFP+ neurospheres bigger than 50 μm) versus Fasudil (Human fibroblasts IMR90 [2]; Balanol-like-324 2 μM vs Fasudil 10 μM, Sox2, Bmi1, nestin GFP reporter, Day 4, n=3): ~1.9 fold | yield of GFP+ neurospheres (Human fibroblasts IMR90 [2]; FIG. 11, Rock kinase inhibitor in induction medium): increases the yield

CCCC(CCC)C(=O)[O-].[Na+] [VPA, 2-propyl-pentanoic acid, monosodium salt]
increase in number of GFP+ irNSCs per neurosphere (Human fibroblasts IMR90 [3]): 2.1 fold | number of neurospheres bigger than 50 μm (Human fibroblasts IMR90 [3]): did not significantly affect
